Where “and” joins values, the source holds several entries; their conditions need not be identical. Equal values may be shown once. Read-outs that look alike come from different tables or passages of the source.
Tests used:
[1] = system: MOLM-13; assay: Cell-cycle analysis; assay type: cell-based, human; conditions: MOLM-13, 48 hours
Experimental: (§1) […] Next, the cells were washed twice with PBS and resuspended in 0.2% Tween 20 in PBS and 0.5 mg/mL Rnase A (Ribonuclease A Type III-A from bovine pancreas, Cat No. R5125, Sigma), and then incubated for 30 min at 37 °C. Subsequently, the cells were stained with 25 μg/mL of propidium iodide (Cat No P4170, Sigma) and analyzed using a BD FACSCanto flow cytometer (Becton Dickinson, San Jose, CA, USA).

[2] = system: HL-60; assay: Cell-cycle analysis; assay type: cell-based, human; conditions: HL-60, treatment for 48 hours; replicates 1-3 (Figure 2F)
Experimental: as §1

[3] = system: ML-2; assay: Cell-cycle analysis; assay type: cell-based, human; conditions: ML-2, treatment for 48 hours; replicates 1-3 (Figure 2F)
Experimental: as §1

[4] = system: MV4-11; assay: Cell-cycle analysis; assay type: cell-based, human; conditions: MV4-11, 48 hours
Experimental: as §1

[5] = system: MOLM-13; assay: q-RT-PCR of MYC, CDKN2A, CDKN1A, GATA2, TAL1, CEBPA, SPI1; assay type: cell-based, human
Experimental: (§2) RNA was extracted with TRIzol Reagent (Invitrogen) according to the manufacturer’s instructions. First, cDNA was synthesized from 1 µg of total RNA using the PrimeScript RT reagent Kit (Perfect Real Time) (Cat No RR037A, TaKaRa) following the manufacturer’s instructions. The quality of cDNA was checked by a multiplex PCR that amplifies PBGD, ABL, BCR and β2-MG genes. […] The following program conditions were used for the q-PCR: 50 °C for 2 min, 95 °C for 60 s following by 45 cycles at 95 °C for 15 s and 60 °C for 60 s; melting program, one cycle at 95 °C for 15 s, 40 °C for 60 s, and 95 °C for 15 s. The relative expression of each gene was quantified by the […] method using the gene GUS as an endogenous control. The sequence of primers used can be found in Supplementary Table 10.

[6] = system: HL-60; assay: as above; assay type: cell-based, human
Experimental: as §2

[7] = system: ML-2; assay: as above; assay type: cell-based, human
Experimental: as §2

[8] = system: MV4-11; assay: as above; assay type: cell-based, human
Experimental: as §2

[9] = Cryopreserved hepatocyte stability; assay type: in vitro ADME; conditions: read-out: Liver Hepatocytes Estimation T1/2
Experimental: This study was conducted at Wuxi (http://www.wuxi.com/). […] Stock solutions of test compound (10 mM; 100% DMSO) and positive controls (7-ethoxycoumarin and 7-hydroxycoumarin; 30 mM; 100% DMSO) were diluted to 1 mM and 3 mM with DMSO and then diluted to 100 μM and 300 μM with acetonitrile (dosing solutions). Cryopreserved cells (from Human Donors, Bioreclamation IVT, Cat No. X008001 and from male C57 Mice, Bioreclamation IVT, Cat No. S00463) were thawed, isolated and suspended in Williams’ Medium E, then diluted with pre-warmed Williams’ Medium E to 0.5 × 10^6 cells/mL. Cell viability was tested by trypan blue exclusion after thawing. A volume of 2 μL of dosing solution and 198 μL of pre-warmed cell suspensions were added to a 96-well plate and incubated at 37 °C (5% CO2) with constant shaking at 600 rpm. Following different incubation times (0, 15, 30, 60 and 90 min), 20 μL of each sample was transferred to a well containing 80 μL of ice-cold stop solution (acetonitrile containing 200 ng/mL tolbutamide and 200 ng/mL labetalol as internal standards). Plates were vortexed at 27 g for 10 min and then centrifuged at 3220 × g for 20 min at 4 °C. An aliquot of supernatant (75 μL) was transferred from each well and mixed with 75 μL of ultra-pure water before submitting to LC-MS/MS analysis. Concentrations of test and control compounds were quantified by LC-MS/MS using a peak area ratio of analyte/internal standard, and the percent loss of the parent compound was calculated at each time point to determine the half-life (t1/2, min). Experiments were performed in duplicate.

[10] = MOLM-13, daily treatment for 48 h, replicates 1-3
[11] = HL-60, replicates 1-3 (Figure 2E)
[12] = HL-60, replicates 1-3 (Figure 2G)
[13] = HL-60 treated daily for 48 h, replicates (Fig 6F)
[14] = ML-2, replicates 1-3 (Figure 2E)
[15] = ML-2, replicates 1-3 (Figure 2G)
[16] = ML-2 treated daily for 48 h, replicates (Fig 6G)
[17] = MV4-11, daily treatment for 48 h, replicates 1-3

For COc1cc2nc(-c3cc(C)oc3C)cc(NCC3CCN(c4ncc(C(=O)NO)cn4)CC3)c2cc1OC [CM-1758, 2-[4-[[[2-(2,5-dimethyl-3-furyl)-6,7-dimethoxy-4-quinolyl]amino]methyl] -1-piperidyl]pyrimidine-5-carbohydroxamic acid], the “Cell number (%) G1” value [1] was 94.79% and 97.36% and 97.43%, the “Cell number (%) G2/M” value [1] was 0.72% and 2.84% and 0.69% and the “Cell number (%) S” value [1] was 2.37% and 1.95% and 1.85%. For the same molecule, the “Cell number (%) G1” value [2] was 79.37% and 83.97% and 81.85%, the “Cell number (%) G2/M” value [2] was 6.97% and 12.93% and 5.78% and the “Cell number (%) S” value [2] was 7.70% and 10.26% and 11.19%. For the same molecule, the “Cell number (%) G1” value [3] was 90.78% and 86.19% and 89.03%, the “Cell number (%) G2/M” value [3] was 6.71% and 3.95% and 9.23% and the “Cell number (%) S” value [3] was 5.26% and 4.58% and 4.26%. The “Cell number (%) G1” value [4] was 84.98% and 89.31% and 85.09%, the “Cell number (%) G2/M” value [4] was 8.40% and 10.00% and 4.67% and the “Cell number (%) S” value [4] was 5.02% and 6.02% and 6.51%. The “q-PCR of CEBPA, log10 (2-ΔΔCt)” value [5, 10] was 2.72 and 2.6188 and 2.826, the “q-PCR of GATA2, log10 (2-ΔΔCt)” value [5, 10] was 1.088 and 1.1424 and 1.015 and the “q-PCR of MYC, log10 (2-ΔΔCt)” value [5, 10] was -0.6216 and -0.5326 and -0.5822. The “q-PCR of SPI1, log10 (2-ΔΔCt)” value [5, 10] was 0.02692 and 0.258 and 0.1525, the “q-PCR of TAL1, log10 (2-ΔΔCt)” value [5, 10] was 1.716 and 1.83 and 1.719 and the “CDKN1A log10 (2-ΔΔCt)” value ([5]; MOLM-13, q-PCR) was 0.1026 and 0.1237 and 0.1127. The “CDKN2A log10 (2-ΔΔCt)” value ([5]; MOLM-13, q-PCR) was 1.026 and 0.9216 and 0.9282, the “GATA2 log10 (2-ΔΔCt)” value ([5]; MOLM-13, q-PCR) was 0.5214 and 0.4825 and 0.3541 and the “MYC log10 (2-ΔΔCt)” value ([5]; MOLM-13, q-PCR) was -0.9936 and -0.8825 and -0.8494. The “SPI1 log10 (2-ΔΔCt)” value ([5]; MOLM-13, q-PCR) was 0.02258 and 0.0358 and 0.04789, the “TAL1 log10 (2-ΔΔCt)” value ([5]; MOLM-13, q-PCR) was 1.37 and 1.426 and 1.336 and the “q-PCR of CDKN1A (p21), log10 (2-ΔΔCt)” value [6, 11] was 1.37 and 1.926 and 1.271. The “q-PCR of CDKN2A (p16), log10 (2-ΔΔCt)” value [6, 11] was 0.4933 and 0.5726 and 0.5849, the “q-PCR of MYC, log10 (2-ΔΔCt)” value [6, 11] was -0.8313 and -0.6255 and -0.6597 and the “q-PCR of CEBPA, log10 (2-ΔΔCt)” value [6, 12] was 0.9022 and 0.7826 and 0.9863. For the same molecule, the “q-PCR of GATA2, log10 (2-ΔΔCt)” value [6, 12] was 0.6526 and 0.7826 and 0.7794, the “q-PCR of SPI1 (PU.1), log10 (2-ΔΔCt)” value [6, 12] was 0.3258 and 0.4025 and 0.5101 and the “q-PCR of TAL1 (SCL), log10 (2-ΔΔCt)” value [6, 12] was 0.0125 and 0.0025 and -0.00845. For the same molecule, the “q-PCR of CEBPA” value [6, 13] was 1.657 log10 (2-ΔΔCt) and 1.235 log10 (2-ΔΔCt) and 2.096 log10 (2-ΔΔCt), the “q-PCR of GATA2” value [6, 13] was 0.5314 log10 (2-ΔΔCt) and 0.9421 log10 (2-ΔΔCt) and 0.9001 log10 (2-ΔΔCt) and the “q-PCR of MYC” value [6, 13] was -0.7182 log10 (2-ΔΔCt) and -0.6003 log10 (2-ΔΔCt) and -0.8615 log10 (2-ΔΔCt). The “q-PCR of SPI1” value [6, 13] was 0.5322 log10 (2-ΔΔCt) and 0.69 log10 (2-ΔΔCt) and 0.7959 log10 (2-ΔΔCt), the “q-PCR of TAL1” value [6, 13] was 1.7134 log10 (2-ΔΔCt) and 1.966 log10 (2-ΔΔCt) and 2.209 log10 (2-ΔΔCt) and the “q-PCR of CDKN1A (p21), log10 (2-ΔΔCt)” value [7, 14] was 1.727 and 1.688 and 1.928. The “q-PCR of CDKN2A (p16), log10 (2-ΔΔCt)” value [7, 14] was 0.7127 and 0.6825 and 0.5556, the “q-PCR of MYC, log10 (2-ΔΔCt)” value [7, 14] was -0.9587 and -1.237 and -1.248 and the “q-PCR of CEBPA, log10 (2-ΔΔCt)” value [7, 15] was 1.926 and 1.786 and 1.671. For the same molecule, the “q-PCR of GATA2, log10 (2-ΔΔCt)” value [7, 15] was 2.013 and 1.996 and 2.475, the “q-PCR of SPI1 (PU.1), log10 (2-ΔΔCt)” value [7, 15] was 0.4833 and 0.5215 and 0.7318 and the “q-PCR of TAL1 (SCL), log10 (2-ΔΔCt)” value [7, 15] was 1.453 and 1.626 and 1.68. For the same molecule, the “q-PCR of CEBPA” value [7, 16] was 1.831 log10 (2-ΔΔCt) and 1.961 log10 (2-ΔΔCt) and 2.004 log10 (2-ΔΔCt), the “q-PCR of GATA2” value [7, 16] was 1.288 log10 (2-ΔΔCt) and 1.216 log10 (2-ΔΔCt) and 1.319 log10 (2-ΔΔCt) and the “q-PCR of MYC” value [7, 16] was -0.6622 log10 (2-ΔΔCt) and -0.5247 log10 (2-ΔΔCt) and -0.8222 log10 (2-ΔΔCt). The “q-PCR of SPI1” value [7, 16] was 0.8685 log10 (2-ΔΔCt) and 0.5818 log10 (2-ΔΔCt) and 0.6427 log10 (2-ΔΔCt), the “q-PCR of TAL1” value [7, 16] was 1.398 log10 (2-ΔΔCt) and 0.9599 log10 (2-ΔΔCt) and 0.8228 log10 (2-ΔΔCt) and the “q-PCR of CEBPA, log10 (2-ΔΔCt)” value [8, 17] was 1.278 and 1.212 and 1.279. The “q-PCR of GATA2, log10 (2-ΔΔCt)” value [8, 17] was 2.088 and 2.042 and 2.015, the “q-PCR of MYC, log10 (2-ΔΔCt)” value [8, 17] was -0.6051 and -0.8193 and -0.727 and the “q-PCR of SPI1, log10 (2-ΔΔCt)” value [8, 17] was 0.513 and 0.595 and 0.5328. The “q-PCR of TAL1, log10 (2-ΔΔCt)” value [8, 17] was 0.8637 and 0.6983 and 1.049, the “CDKN1A log10 (2-ΔΔCt)” value ([8]; MV4-11, q-PCR) was 0.6259 and 0.6326 and 0.6646 and the “CDKN2A log10 (2-ΔΔCt)” value ([8]; MV4-11, q-PCR) was 0.8926 and 0.6026 and 0.7418. The “CEBPA log10 (2-ΔΔCt)” value ([8]; MV4-11, q-PCR) was 1.982 and 1.782 and 1.913, the “MYC log10 (2-ΔΔCt)” value ([8]; MV4-11, q-PCR) was -0.7926 and -0.6522 and -0.726 and the “SPI1 log10 (2-ΔΔCt)” value ([8]; MV4-11, q-PCR) was 0.2626 and 0.2252 and 0.159. For the same molecule, the “TAL1 log10 (2-ΔΔCt)” value ([8]; MV4-11, q-PCR) was 0.5124 and 0.5 and 0.5901, the half-life at 1 µM ([9]; cryopreserved hepatocytes, Human) was 92.1 min and the half-life at 1 µM ([9]; male, C57, cryopreserved hepatocytes, Mouse) was 19.5 min.

Source: PMC11219871, “Epigenetic-based differentiation therapy for Acute Myeloid Leukemia” (Nature Communications, 2024)
